In PubChem BioAssay (NCI):
Several values for one entry are separate records, joined by “and”; a condition that tells them apart may be missing. Equal values may be shown once.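 Briefly, cells in 96-well plates were exposed to five compound concentrations for 48 h, and endpoints were estimated by linear interpolation. Abbreviation: GI50, concentration required for 50% inhibition of growth. TGI is the concentration that stops growth completely.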

Key:
Experiment in all cases: NCI-60 cell line screen, 48 h
TK-10 renal = tested on: TK-10 renal
HS 578T breast = tested on: HS 578T breast
DU-145 prostate = tested on: DU-145 prostate
UO-31 renal = tested on: UO-31 renal
T-47D breast = tested on: T-47D breast
U251 CNS = tested on: U251 CNS
NCI-H460 lung = tested on: NCI-H460 lung
NCI/ADR-RES ovarian = tested on: NCI/ADR-RES ovarian
A549 NSCLC = tested on: A549 NSCLC
PC-3 prostate = tested on: PC-3 prostate

Work on Clc1ccc2c(NCCCCNc3nc(N4CCOCC4)nc4ccccc34)ccnc2c1 yielded a GI50 (TK-10 renal) of 1.92 µM, a TGI (TK-10 renal) of 3.61 µM and a GI50 (HS 578T breast) of 2.25 µM. It also gave a TGI (HS 578T breast) of 7.66 µM, a GI50 (DU-145 prostate) of 4.62 µM and a TGI (DU-145 prostate) of 16.5 µM. The GI50 (UO-31 renal) was 1.66 µM, the TGI (UO-31 renal) was 3.12 µM and the GI50 (T-47D breast) was 2.23 µM. It also gave a TGI (T-47D breast) of 6.82 µM, a GI50 (U251 CNS) of 1.84 µM and a TGI (U251 CNS) of 3.66 µM. For the same compound, the GI50 (NCI-H460 lung) was 2.22 µM, the TGI (NCI-H460 lung) was 5.22 µM and the GI50 (NCI/ADR-RES ovarian) was 4.88 µM. For the same compound, the TGI (NCI/ADR-RES ovarian) was 20.6 µM, the GI50 (A549 NSCLC) was 3.16 µM and the TGI (A549 NSCLC) was 11.3 µM. The GI50 (PC-3 prostate) was 6.37 µM and the TGI (PC-3 prostate) was 19.5 µM.

For C[C@]12CC[C@H]3[C@@H](CCC4=CC(=O)CC[C@@]43C)[C@]1(O)CC[C@]2(O)C(=O)CO, the TGI (TK-10 renal) was > 100 µM, the TGI (HS 578T breast) was > 100 µM and the TGI (DU-145 prostate) was > 100 µM. For the same compound, the TGI (UO-31 renal) was > 100 µM, the TGI (T-47D breast) was > 100 µM and the TGI (U251 CNS) was > 100 µM. The TGI (NCI-H460 lung) was > 100 µM, the TGI (NCI/ADR-RES ovarian) was > 100 µM and the TGI (A549 NSCLC) was > 100 µM. The TGI (PC-3 prostate) was > 100 µM.

In the case of Clc1ccc(NCNC2Nc3ccccc3N2)cc1Cl, the TGI (TK-10 renal) is reported as > 100 µM, the TGI (HS 578T breast) is reported as > 100 µM and the TGI (DU-145 prostate) is reported as > 100 µM. The TGI (UO-31 renal) was > 100 µM, the TGI (T-47D breast) was > 100 µM and the TGI (U251 CNS) was > 100 µM. The TGI (NCI-H460 lung) was > 100 µM, the TGI (NCI/ADR-RES ovarian) was > 100 µM and the TGI (A549 NSCLC) was > 100 µM. The TGI (PC-3 prostate) was > 100 µM.

CCCCCCCCCCCC1=NC(C)(C)CN1C(C)C was tested, and the GI50 (TK-10 renal) was 4.02 µM, the TGI (TK-10 renal) was 16.1 µM and the GI50 (HS 578T breast) was 2.81 µM. It also gave a TGI (HS 578T breast) of 13.1 µM, a GI50 (DU-145 prostate) of 5.46 µM and a TGI (DU-145 prostate) of 17.9 µM. For the same compound, the GI50 (UO-31 renal) was 2.75 µM, the TGI (UO-31 renal) was 12.5 µM and the GI50 (T-47D breast) was 2.9 µM. It also gave a TGI (T-47D breast) of 8.73 µM, a GI50 (U251 CNS) of 3.4 µM and a TGI (U251 CNS) of 12.8 µM. The GI50 (NCI-H460 lung) was 3.22 µM, the TGI (NCI-H460 lung) was 9.28 µM and the GI50 (NCI/ADR-RES ovarian) was 3.63 µM. For the same compound, the TGI (NCI/ADR-RES ovarian) was 13.4 µM, the GI50 (A549 NSCLC) was 3.71 µM and the TGI (A549 NSCLC) was 14.6 µM. For the same compound, the GI50 (PC-3 prostate) was 2.12 µM and the TGI (PC-3 prostate) was 11.1 µM.

In the case of CN(C)CCN1C(=O)c2cccc3cc(N)cc(c23)C1=O, the GI50 (TK-10 renal) is reported as 3.27 µM, the TGI (TK-10 renal) is reported as 24.9 µM and 14.4 µM and the GI50 (HS 578T breast) is reported as 10.4 µM. For the same compound, the TGI (HS 578T breast) was 50.9 µM and 21.2 µM, the GI50 (DU-145 prostate) was 1.59 µM and the TGI (DU-145 prostate) was 29.8 µM and 12.9 µM. For the same compound, the GI50 (UO-31 renal) was 2.09 µM, the TGI (UO-31 renal) was 43.1 µM and 12.8 µM and the GI50 (T-47D breast) was 3.66 µM. For the same compound, the TGI (T-47D breast) was > 57.1 µM and 32.4 µM, the GI50 (U251 CNS) was 2.85 µM and the TGI (U251 CNS) was > 46.7 µM and 20.6 µM. The TGI (NCI-H460 lung) was 5.34 µM and 5.95 µM, the TGI (NCI/ADR-RES ovarian) was > 67.2 µM and 12.2 µM and the GI50 (A549 NSCLC) was 0.912 µM and 1.51 µM. For the same compound, the TGI (A549 NSCLC) was > 21.5 µM and 9.09 µM, the GI50 (PC-3 prostate) was 4.07 µM and the TGI (PC-3 prostate) was 42.8 µM and 8.73 µM.

With Cc1ccc(NC(=O)c2ccoc2)cc1-c1ccc(C(=O)NCC2CC2)cc1 the GI50 (TK-10 renal) was > 25 µM, the TGI (TK-10 renal) was > 25 µM and the GI50 (HS 578T breast) was > 19.3 µM. The TGI (HS 578T breast) was > 25 µM, the GI50 (DU-145 prostate) was > 25 µM and the TGI (DU-145 prostate) was > 25 µM. The GI50 (UO-31 renal) was > 9.98 µM, the TGI (UO-31 renal) was > 17.1 µM and the GI50 (T-47D breast) was 7.16 µM. The TGI (T-47D breast) was > 25 µM, the GI50 (U251 CNS) was > 25 µM and the TGI (U251 CNS) was > 25 µM. For the same compound, the GI50 (NCI-H460 lung) was > 24 µM, the TGI (NCI-H460 lung) was > 25 µM and the GI50 (NCI/ADR-RES ovarian) was > 18.8 µM. The TGI (NCI/ADR-RES ovarian) was > 25 µM, the GI50 (A549 NSCLC) was > 19.5 µM and the TGI (A549 NSCLC) was > 25 µM. For the same compound, the GI50 (PC-3 prostate) was > 17 µM and the TGI (PC-3 prostate) was > 25 µM.

COCCn1c(Nc2ccc(C(=O)NO)cc2)nc2ccccc21 gave a GI50 (TK-10 renal) of 3.19 µM, a TGI (TK-10 renal) of 44.6 µM and a GI50 (HS 578T breast) of 3.43 µM. It also gave a TGI (HS 578T breast) of 34.3 µM, a GI50 (DU-145 prostate) of 2.91 µM and a TGI (DU-145 prostate) of 14.7 µM. The GI50 (UO-31 renal) was 2.25 µM, the TGI (UO-31 renal) was 17.1 µM and the GI50 (T-47D breast) was 3.03 µM. The TGI (T-47D breast) was > 100 µM, the GI50 (U251 CNS) was 3.99 µM and the TGI (U251 CNS) was 18.6 µM. It also gave a GI50 (NCI-H460 lung) of 4.06 µM, a TGI (NCI-H460 lung) of 30.4 µM and a GI50 (NCI/ADR-RES ovarian) of 1.3 µM. The TGI (NCI/ADR-RES ovarian) was 4.84 µM, the GI50 (A549 NSCLC) was 4.9 µM and the TGI (A549 NSCLC) was 23 µM. For the same compound, the GI50 (PC-3 prostate) was 8.78 µM and the TGI (PC-3 prostate) was > 100 µM.

With CC(C)(C)CNCCO the TGI (TK-10 renal) was > 100 µM, the TGI (HS 578T breast) was > 100 µM and the TGI (DU-145 prostate) was > 100 µM. For the same compound, the TGI (UO-31 renal) was > 100 µM, the TGI (T-47D breast) was > 100 µM and the TGI (U251 CNS) was > 100 µM. For the same compound, the TGI (NCI-H460 lung) was > 100 µM, the TGI (NCI/ADR-RES ovarian) was > 100 µM and the TGI (A549 NSCLC) was > 100 µM. The TGI (PC-3 prostate) was > 100 µM.
